Source: patent US7396812B2, “Method for modulating Nod1 activity, use of a MTP related molecule for modulating Nod1 activity, and therapeutic applications thereof” (Institut Pasteur, priority 2003, dated 2008)
“Also recorded” adds a separate entry of the source.

Columns and labels:
Nod2 [1] = target: T1, Nod2 (Homo sapiens, UniProt Q9HC29); test: Nod2-dependent activation of NF-κB; assay type: cell-based; settings: equivalent amounts (10 ng) of muropeptide
T1 construct: expressed in transfected cells
Method: (§1) Studies examining the activation of NF-κB by LPS, lipid A, lipoproteins or the purified PGNs in cells over-expressing Nod1 were carried out as described by Inohara et al. (N. Inohara et al., 2001). Briefly, HEK293 cells were transfected overnight with 10 ng of Nod1. At the same time, the LPS, lipoproteins or peptidoglycan preparations were added and the NF-κB-dependent luciferase activation was then measured following 24 h of co-incubation.
(§2) NF-κB-dependent luciferase assays were performed in duplicate and data represent at least 3 independent experiments.
In FIG. 2A, PGN muropeptides from N. meningitidis were separated by reverse-phase HPLC and subsequently analysed by mass spectroscopy (see supporting on-line text). N.D.(a), not determined for this particular HPLC fractionation, but found to be O-acetylated dimeric GM-tetrapeptide in subsequent HPLC fractionation and mass spectroscopy analyses. […] N.D.(b), fraction unknown. […] FIG. 2C is a schematic representation of N. meningitidis PGN detailing the Nod1-active motif from fraction 3 (GM-tripeptide) as determined by mass spectroscopy. In FIG. 2D, equivalent amounts (10 ng) of GM-dipeptide (GM-di; synthetic source), GM-tripeptide (GMtri), or GM-tetrapeptide (GM-tetra) were tested for stimulation of Nod1-, Nod2- or TLR2-dependent activation of NF-κB. […]

Nod2 [2] = target: T1, Nod2; settings: previous findings, Girardin et al. 2003; Inohara et al. 2003; cited from earlier work
Nod1 [3] = target: T2, Nod1 (Homo sapiens, UniProt Q9Y239); test: Nod1-dependent NF-κB-luciferase activation in Nod1-overexpressing HEK293 cells; assay type: cell-based; set-up: expressed in transfected cells; host or cells: HEK293; settings: for activation of Nod1 by HPLC muropeptide fractions: N. meningitidis PGN muropeptide fractions, 1% of the volume of each fraction; for detection by Nod1 (Nod1-dependent activation of NF-κB): equivalent amounts (10 ng) of muropeptide; for stimulation of the Nod1 pathway (NF-κB activation): LPS, lipid A, lipoprotein preparations, 10 μg (10 μg/ml in b180)
T2 sequence (Q9Y239 1-953): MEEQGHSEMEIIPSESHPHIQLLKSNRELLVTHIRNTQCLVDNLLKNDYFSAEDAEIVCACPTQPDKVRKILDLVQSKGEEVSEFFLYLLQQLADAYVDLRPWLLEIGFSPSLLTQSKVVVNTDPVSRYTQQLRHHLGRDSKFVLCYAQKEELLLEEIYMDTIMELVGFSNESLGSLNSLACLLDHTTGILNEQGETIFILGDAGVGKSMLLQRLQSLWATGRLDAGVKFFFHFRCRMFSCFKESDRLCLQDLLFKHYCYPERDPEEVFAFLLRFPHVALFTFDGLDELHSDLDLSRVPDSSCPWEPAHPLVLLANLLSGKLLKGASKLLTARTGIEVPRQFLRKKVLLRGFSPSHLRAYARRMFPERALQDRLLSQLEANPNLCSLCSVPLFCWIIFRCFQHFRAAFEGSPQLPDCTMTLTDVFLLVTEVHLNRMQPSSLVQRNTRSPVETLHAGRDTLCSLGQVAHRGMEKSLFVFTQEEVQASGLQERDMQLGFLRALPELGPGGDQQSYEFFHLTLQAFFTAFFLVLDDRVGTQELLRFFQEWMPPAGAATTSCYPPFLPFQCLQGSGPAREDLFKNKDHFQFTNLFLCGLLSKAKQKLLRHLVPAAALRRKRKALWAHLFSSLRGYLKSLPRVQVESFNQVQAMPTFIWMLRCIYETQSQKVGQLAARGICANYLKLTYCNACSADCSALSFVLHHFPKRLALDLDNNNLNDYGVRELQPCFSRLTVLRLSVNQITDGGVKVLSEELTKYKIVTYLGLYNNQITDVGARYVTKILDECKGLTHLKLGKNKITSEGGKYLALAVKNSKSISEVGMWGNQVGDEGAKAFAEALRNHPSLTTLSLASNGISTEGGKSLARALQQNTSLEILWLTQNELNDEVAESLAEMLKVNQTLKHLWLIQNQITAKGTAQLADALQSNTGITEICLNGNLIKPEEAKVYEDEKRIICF
Method: as §1, §2

Nod1 [4] = target: T2, Nod1; test: Nod1-dependent IL-8 production in HeLa epithelial cells (ELISA); assay type: cell-based; set-up: expressed in transfected cells; settings: HeLa cells transfected with 10 ng Nod1 plus muropeptide, 18 h
Method: To measure Nod1-dependent IL-8 produced in epithelial cells by muropeptides, 5×10^5 HeLa cells were seeded into each well of a twelve well plate and transfected the following day with 10 ng Nod1 plus the individual muropeptides (as described above) or treated with IL-1 as a positive control. Eighteen hours later, supernatants were collected and assayed for IL-8 as previously described (D. J. Philpott et al., 2000) using an ELISA kit (R and D Systems).

[5] = system: NF-κB p65 in isolated intestinal epithelial cells; test: NF-κB p65 nuclear translocation in isolated intestinal epithelial cells from wild-type or Nod1-deficient mice; assay type: cell-based; settings: supernatants microinjected, TNFα 10 ng/ml
Method: At least 50 microinjected cells were examined per coverslip and experiments were performed at least 2 times independently with similar results.
Microinjection of Gram-negative but not Gram-positive bacterial supernatants activates NF-κB in isolated intestinal epithelial cells from wild-type mice, as observed by nuclear translocation of the p65 subunit of NF-κB (as described in FIG. 3B).

T1 sequence (Q9HC29 whole entry): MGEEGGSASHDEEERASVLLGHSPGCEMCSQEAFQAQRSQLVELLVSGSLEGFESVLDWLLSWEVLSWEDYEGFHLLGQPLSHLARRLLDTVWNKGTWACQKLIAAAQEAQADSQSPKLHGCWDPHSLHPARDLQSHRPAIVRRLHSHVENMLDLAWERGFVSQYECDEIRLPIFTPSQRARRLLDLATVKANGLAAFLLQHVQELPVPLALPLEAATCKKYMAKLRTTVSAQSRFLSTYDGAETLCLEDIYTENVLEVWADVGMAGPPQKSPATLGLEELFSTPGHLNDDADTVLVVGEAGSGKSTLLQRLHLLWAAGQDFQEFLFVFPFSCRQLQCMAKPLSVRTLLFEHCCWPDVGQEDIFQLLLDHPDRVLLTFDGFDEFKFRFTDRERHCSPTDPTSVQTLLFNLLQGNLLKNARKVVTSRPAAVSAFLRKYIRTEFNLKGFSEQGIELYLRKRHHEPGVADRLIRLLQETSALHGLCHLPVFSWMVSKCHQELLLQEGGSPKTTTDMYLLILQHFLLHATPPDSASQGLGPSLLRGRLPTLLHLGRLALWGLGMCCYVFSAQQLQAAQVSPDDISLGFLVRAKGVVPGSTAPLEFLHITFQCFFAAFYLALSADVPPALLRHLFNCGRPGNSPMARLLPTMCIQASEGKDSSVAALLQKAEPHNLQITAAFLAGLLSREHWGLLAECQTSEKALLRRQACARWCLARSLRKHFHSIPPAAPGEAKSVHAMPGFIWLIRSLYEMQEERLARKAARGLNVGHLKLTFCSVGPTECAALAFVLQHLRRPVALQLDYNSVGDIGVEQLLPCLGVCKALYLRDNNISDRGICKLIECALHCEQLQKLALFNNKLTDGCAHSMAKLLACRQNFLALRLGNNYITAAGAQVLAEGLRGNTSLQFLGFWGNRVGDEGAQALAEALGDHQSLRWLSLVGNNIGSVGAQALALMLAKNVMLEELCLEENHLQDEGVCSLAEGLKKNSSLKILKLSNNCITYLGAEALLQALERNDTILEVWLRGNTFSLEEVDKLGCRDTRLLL

CC(=O)N[C@H]1[C@H](O[C@H]2[C@H](O[C@H](C)C(=O)N[C@@H](C)C(=O)N[C@H](CCC(=O)O)C(N)=O)[C@@H](NC(C)=O)C(O)O[C@@H]2CO)O[C@H](CO)[C@@H](O)[C@@H]1O (stereo partly drawn) [GM-dipeptide]
detection by Nod2 (Nod2-dependent activation of NF-κB) (Nod2 [1]): detects

CC(=O)N[C@@H]1[C@@H](O[C@H](C)C(=O)N[C@@H](C)C(=O)N[C@H](CCC(=O)O)C(N)=O)[C@H](O)[C@@H](CO)O[C@H]1O [M-dipeptide]
recognition by Nod2 (Nod2 [2]): recognizes

CC(=O)NC1C(O)OC(CO)C(O)C1OC(C)C(=O)NC(C)C(=O)NC(CCC(=O)NC(CCCC(N)C(=O)O)C(=O)O)C(=O)O (stereo not drawn) [MurTriDAP]
detection by Nod1 of peptidoglycan structures (FIG. 8) (Nod1 [3]): detects

C[C@H](N)C(=O)N[C@H](CCC(=O)NC(CCCC(N)C(=O)O)C(=O)O)C(=O)O (stereo partly drawn) [TriDAP]
detection by Nod1 of peptidoglycan structures (FIG. 8) (Nod1 [3]): detects

CC(=O)N[C@H]1[C@@H](OP(=O)(O)OP(=O)(O)OC[C@H]2O[C@@H](n3ccc(=O)[nH]c3=O)[C@H](O)[C@@H]2O)O[C@H](CO)[C@@H](O)[C@@H]1O[C@H](C)C(=O)N[C@@H](C)C(=O)N[C@H](CCC(=O)N[C@@H](CCC[C@@H](N)C(=O)O)C(=O)O)C(=O)O [UDP-MurTriDAP]
detection by Nod1 of peptidoglycan structures (FIG. 8) (Nod1 [3]): detects

C[C@H](N)C(=O)N[C@H](CCC(=O)NC(CCCC(N)C(=O)O)C(=O)O)C(=O)O (stereo partly drawn) [tripeptide L-Ala-D-Glu-mesoDAP, L-Ala-D-Glu-mesoDAP]
detection by Nod1 of peptidoglycan structures (FIG. 8) (Nod1 [3]): able to sense

GlcNAc-MurNAc-L-Ala-D-Glu-mesoDAP [GM-tripeptide]
production of IL-8 (Nod1 [4]): production of the pro-inflammatory chemokine, IL-8; also recorded: leads to the production
detection by Nod1 of peptidoglycan structures (FIG. 8) (Nod1 [3]): detects
activation of Nod1 by HPLC muropeptide fractions (Nod1 [3]; listed as fraction 3): activates Nod1; also recorded: able to activate Nod1
detection by Nod1 (Nod1-dependent activation of NF-κB) (Nod1 [3]): specifically detects

GlcNAc-MurNAc-L-Ala-D-Glu-mesoDAP(GlcNAc-MurNAc-L-Ala-D-Glu-mesoDAP-D-Ala)-D-Ala [dimeric GM-tetrapeptide]
activation of Nod1 by HPLC muropeptide fractions (Nod1 [3]): does not activate Nod1

GlcNAc-MurNAc-L-Ala-D-Glu-mesoDAP-DAla [GM-tetrapeptide]
detection by Nod1 (Nod1-dependent activation of NF-κB) (Nod1 [3]): not sensed by Nod1

GlcNAc-anhydro-MurNAc-L-Ala-D-GlumesoDAP [anhydrous GM-tripeptide]
activation of Nod1 by HPLC muropeptide fractions (Nod1 [3]): active molecule in fraction 17

Lpp: the most abundant lipoprotein in E. coli (lipidated)
stimulation of the Nod1 pathway (NF-κB activation) (Nod1 [3]): fail to activate the Nod1 pathway; also recorded: not possible to stimulate the Nod1 pathway

Pam3Cys-Ser-Lys4-OH [synthetic lipopeptide]
stimulation of the Nod1 pathway (NF-κB activation) (Nod1 [3]): not possible to stimulate the Nod1 pathway
stimulation of the Nod1 pathway (NF-κB activation) (Nod1 [3]; listed as lipopeptide): fail to activate the Nod1 pathway

TNFα
NF-κB nuclear translocation in Nod1-deficient cells [5]: can efficiently stimulate NF-κB nuclear translocation

lipid A
stimulation of the Nod1 pathway (NF-κB activation) (Nod1 [3]): could not stimulate the Nod1 pathway
